Here are results for 15 compounds from ChEMBL document CHEMBL1201862, “PubChem BioAssay data set” (2004).

Activity calls are given as the source filed them. Where only a bound is given, the exact number is not on record here.

For test [1], the target named is T1, Short transient receptor potential channel 4 (Mus musculus, UniProt Q9QUQ5).
T1 sequence (Q9QUQ5 whole entry): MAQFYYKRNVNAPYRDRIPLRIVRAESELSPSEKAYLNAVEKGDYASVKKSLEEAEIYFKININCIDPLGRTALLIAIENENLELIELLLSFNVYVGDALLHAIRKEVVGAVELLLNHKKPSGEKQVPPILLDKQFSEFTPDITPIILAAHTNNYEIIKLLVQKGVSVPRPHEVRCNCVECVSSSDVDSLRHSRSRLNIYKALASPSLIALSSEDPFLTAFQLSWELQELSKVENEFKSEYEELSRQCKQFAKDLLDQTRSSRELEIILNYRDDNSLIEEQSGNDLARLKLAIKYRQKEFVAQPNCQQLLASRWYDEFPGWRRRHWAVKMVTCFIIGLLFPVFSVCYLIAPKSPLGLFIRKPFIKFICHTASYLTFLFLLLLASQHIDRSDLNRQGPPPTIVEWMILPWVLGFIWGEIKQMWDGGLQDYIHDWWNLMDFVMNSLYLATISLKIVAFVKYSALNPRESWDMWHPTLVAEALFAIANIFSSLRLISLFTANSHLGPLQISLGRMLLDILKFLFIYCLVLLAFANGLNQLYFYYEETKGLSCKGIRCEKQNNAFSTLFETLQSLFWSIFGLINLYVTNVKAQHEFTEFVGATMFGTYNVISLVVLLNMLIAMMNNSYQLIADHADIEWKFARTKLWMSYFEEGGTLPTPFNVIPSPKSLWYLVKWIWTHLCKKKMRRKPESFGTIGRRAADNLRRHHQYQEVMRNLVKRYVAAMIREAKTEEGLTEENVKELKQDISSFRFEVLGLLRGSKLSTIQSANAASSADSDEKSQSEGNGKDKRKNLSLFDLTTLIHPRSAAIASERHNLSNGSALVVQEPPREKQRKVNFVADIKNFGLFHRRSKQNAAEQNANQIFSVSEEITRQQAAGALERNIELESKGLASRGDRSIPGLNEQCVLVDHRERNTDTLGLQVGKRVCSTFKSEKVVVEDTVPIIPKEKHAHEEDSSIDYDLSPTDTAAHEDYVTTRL
Kind of test: mouse TRPC4 channel inhibitors, dose response, cell-based, HEK293 TRPC4/mu-opioid, Fluo-4 calcium (AID 434942).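 Note: potency of inhibitors blocking the TRPC4 calcium response.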 In kind it is functional.

Test [2] is described as follows: cells. In kind it is functional.
Test [3] deals with T2, Microphthalmia-associated transcription factor (Homo sapiens, UniProt O75030).
T2 sequence (O75030 whole entry): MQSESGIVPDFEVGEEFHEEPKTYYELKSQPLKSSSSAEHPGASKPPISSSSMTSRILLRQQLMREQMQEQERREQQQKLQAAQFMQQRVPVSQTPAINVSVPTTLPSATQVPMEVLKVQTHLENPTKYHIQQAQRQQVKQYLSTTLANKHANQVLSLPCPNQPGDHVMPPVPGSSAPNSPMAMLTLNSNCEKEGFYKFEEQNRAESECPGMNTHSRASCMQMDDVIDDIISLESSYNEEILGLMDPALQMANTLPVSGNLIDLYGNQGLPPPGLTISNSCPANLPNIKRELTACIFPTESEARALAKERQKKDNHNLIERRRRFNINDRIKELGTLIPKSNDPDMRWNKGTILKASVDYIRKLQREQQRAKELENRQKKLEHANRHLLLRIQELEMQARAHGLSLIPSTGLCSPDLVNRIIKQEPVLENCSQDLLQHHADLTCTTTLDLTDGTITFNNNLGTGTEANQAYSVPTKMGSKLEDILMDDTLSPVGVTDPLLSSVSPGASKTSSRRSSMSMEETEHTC
Kind of test: TRPM1 promoter luciferase signal decrease, dose response, MITF inhibitor project, cell-based, SK-MEL-5, cherry-picked, set 3 (AID 493073).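 Note: SK-MEL-5 melanoma cells with luciferase driven by the MITF target TRPM1 promoter.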 In kind it is functional.

The nature of test [4]: cells. In kind it is functional, cell-based.
Test [5] can be described thus: Luminescence Cell-Based Dose Response HTS to Identify Inhibitors of 5'UTR Stem-Loop Driven Prion Protein mRNA Translation in H4 Neuroglioblastoma Cells. [Related pubchem assays: 1827 (Project Summary), 1813 (Primary HTS)]. In kind it is functional.
Test [6] can be described thus: cells. In kind it is functional, cell-based. The source holds these as a separate data set.
Test [7] is described as follows: inhibitors of firefly luciferase expression or activity, dose response, H4 neuroglioma cells, luminescence (AID 1990). In kind it is functional, cell-based.
Test [8] has as its system HEK293. Briefly: inhibitors of LMP1-driven NF-kB reporter, dose response, cell-based, HEK293, luciferase, cherry-pick (AID 588343). In kind it is functional. The note with it: Homo sapiens.
Test [9] is described as follows: inhibitors of SNCA 5'UTR-driven reporter translation, confirmation, H4 neuroglioma cells, luminescence (AID 1988). In kind it is functional, cell-based.
In test [10] the test system is INS1. Briefly: beta cell apoptosis inhibitors, cytokine rescue, dose response, luminescence, retest (AID 449756).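 Note: cell death triggered by IL-1 beta plus TNF-alpha plus IFN-gamma mixture; protective hits raise ATP signal compared with cytokine alone wells.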 In kind it is functional, cell-based. The conditions noted are these: Rattus norvegicus.
The target in test [11] is Glucose-6-phosphate 1-dehydrogenase (Homo sapiens, UniProt P11413). Briefly: human G6PD enzyme inhibitors, dose response, selectivity assay for P. falciparum G6PD inhibitor project, biochemical, fluorescence (AID 504792). In kind it is functional.
Glucose-6-phosphate 1-dehydrogenase, sequence (P11413 whole entry): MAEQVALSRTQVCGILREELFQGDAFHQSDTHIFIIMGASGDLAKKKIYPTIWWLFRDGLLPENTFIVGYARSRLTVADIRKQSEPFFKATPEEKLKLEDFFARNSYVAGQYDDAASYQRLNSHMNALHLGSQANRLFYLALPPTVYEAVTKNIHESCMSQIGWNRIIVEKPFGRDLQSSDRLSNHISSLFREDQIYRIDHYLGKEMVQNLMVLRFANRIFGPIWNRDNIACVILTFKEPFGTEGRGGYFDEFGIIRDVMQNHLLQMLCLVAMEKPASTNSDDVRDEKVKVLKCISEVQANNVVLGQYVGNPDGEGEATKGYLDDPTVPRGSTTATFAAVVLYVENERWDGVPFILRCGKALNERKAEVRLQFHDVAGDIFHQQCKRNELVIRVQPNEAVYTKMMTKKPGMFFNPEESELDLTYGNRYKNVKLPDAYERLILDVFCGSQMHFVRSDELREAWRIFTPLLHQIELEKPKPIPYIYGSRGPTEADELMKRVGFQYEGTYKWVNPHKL
In test [12] the target is T3, Polyadenylate-binding protein 1 (Homo sapiens, UniProt P11940). Briefly: PABP1 MLLE–PAM2 binding inhibitor potency, dose response, biochemical, fluorescence polarization, FITC-PAM2 peptide (AID 602259). In kind it is functional. The note with it: read-out: IC50_Mean.
T3 sequence (P11940 whole entry): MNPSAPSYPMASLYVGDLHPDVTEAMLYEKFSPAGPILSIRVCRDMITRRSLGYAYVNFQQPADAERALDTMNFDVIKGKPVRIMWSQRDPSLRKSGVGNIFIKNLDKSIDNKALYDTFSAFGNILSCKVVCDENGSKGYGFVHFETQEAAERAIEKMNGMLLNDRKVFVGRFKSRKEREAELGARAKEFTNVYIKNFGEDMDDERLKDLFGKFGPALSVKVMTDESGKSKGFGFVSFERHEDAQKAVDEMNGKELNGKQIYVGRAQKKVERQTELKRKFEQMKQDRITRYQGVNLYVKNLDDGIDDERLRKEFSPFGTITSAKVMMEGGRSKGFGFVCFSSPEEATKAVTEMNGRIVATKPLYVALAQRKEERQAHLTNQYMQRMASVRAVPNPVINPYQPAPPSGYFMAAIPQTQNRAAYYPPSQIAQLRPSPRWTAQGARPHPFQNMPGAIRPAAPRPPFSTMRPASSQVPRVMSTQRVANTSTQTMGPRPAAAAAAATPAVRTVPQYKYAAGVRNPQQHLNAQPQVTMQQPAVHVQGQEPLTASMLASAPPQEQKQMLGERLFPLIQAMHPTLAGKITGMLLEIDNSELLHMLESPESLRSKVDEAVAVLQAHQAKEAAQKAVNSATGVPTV
The target in test [13] is T3, Polyadenylate-binding protein 1. Kind of test: PABP1 MLLE–PAM2 interaction inhibitors, dose response, miRNA deadenylation inhibitor project, biochemical, fluorescence polarization, Cy5-PAM2 peptide, secondary (AID 602260). In kind it is functional. The conditions noted are these: read-out: IC50_Mean. On the technique in general: Fluorescence polarisation rises when a labelled molecule tumbles more slowly, as on binding a larger partner.

Test [14] in a line: THP-1 cell cytotoxicity, dose response, cytotoxicity control for non-replicating M. tuberculosis project (AID 489025). In kind it is functional.
The nature of test [15]: HepG2 cell cytotoxicity, dose response, cytotoxicity control for non-replicating M. tuberculosis project (AID 489018). In kind it is functional. The note with it: Mycobacterium tuberculosis.
Test [16] in a line: C. albicans growth with fluconazole, confirmation, fluorescence, retest (AID 2467). In kind it is functional, cell-based.
Test [17] concerns the target T4, Aminopeptidase N (Plasmodium falciparum FcB1/Columbia, UniProt O96935).
T4 sequence (O96935 whole entry): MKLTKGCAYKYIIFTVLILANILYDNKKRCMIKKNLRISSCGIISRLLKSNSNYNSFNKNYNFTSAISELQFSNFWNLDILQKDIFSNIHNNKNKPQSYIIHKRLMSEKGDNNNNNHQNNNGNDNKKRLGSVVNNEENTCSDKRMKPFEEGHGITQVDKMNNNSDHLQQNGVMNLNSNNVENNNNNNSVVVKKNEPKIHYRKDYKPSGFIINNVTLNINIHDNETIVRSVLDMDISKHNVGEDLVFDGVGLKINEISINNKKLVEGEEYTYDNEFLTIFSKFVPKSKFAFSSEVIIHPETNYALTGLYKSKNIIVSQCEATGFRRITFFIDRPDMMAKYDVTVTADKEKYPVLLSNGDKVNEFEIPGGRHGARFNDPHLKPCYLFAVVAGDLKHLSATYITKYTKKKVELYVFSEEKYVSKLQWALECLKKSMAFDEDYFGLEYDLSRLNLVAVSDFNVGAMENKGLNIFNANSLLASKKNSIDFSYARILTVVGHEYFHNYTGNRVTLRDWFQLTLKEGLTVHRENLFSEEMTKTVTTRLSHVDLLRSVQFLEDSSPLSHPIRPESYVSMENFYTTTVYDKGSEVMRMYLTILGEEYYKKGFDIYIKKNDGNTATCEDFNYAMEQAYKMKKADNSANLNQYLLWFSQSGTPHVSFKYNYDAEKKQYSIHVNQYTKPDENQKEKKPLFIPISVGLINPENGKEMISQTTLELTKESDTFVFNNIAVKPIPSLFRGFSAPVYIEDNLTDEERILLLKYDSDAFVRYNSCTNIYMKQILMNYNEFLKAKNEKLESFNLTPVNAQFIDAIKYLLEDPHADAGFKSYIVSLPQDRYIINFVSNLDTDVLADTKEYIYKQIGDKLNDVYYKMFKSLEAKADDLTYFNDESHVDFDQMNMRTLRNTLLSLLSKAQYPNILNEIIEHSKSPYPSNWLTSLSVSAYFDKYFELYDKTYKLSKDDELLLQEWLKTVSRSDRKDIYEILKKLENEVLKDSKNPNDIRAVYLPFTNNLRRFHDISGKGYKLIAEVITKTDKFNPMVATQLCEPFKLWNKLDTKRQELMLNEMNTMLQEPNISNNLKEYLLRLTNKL
Briefly: P. falciparum M1AAP inhibitors, biochemical, fluorogenic H-Leu-NHMec substrate, 1536-well (AID 1445). Also on record: species or system Plasmodium falciparum 3D7, 3D7.

Test [18] can be described thus: Vero E6 cell cytotoxicity, dose response, cytotoxicity control for non-replicating M. tuberculosis project, secondary assay (AID 492998). In kind it is functional, VeroE6. The note with it: Vero C1008.
The nature of test [19]: NIH-3T3 fibroblast cytotoxicity, dose response, cytotoxicity control, cell-based, fluorescence, Alamar Blue, secondary assay (AID 2327).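 Note: NIH-3T3 mouse fibroblasts cultured with fluconazole at 8 µg/mL.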 In kind it is functional.

With `CCCn1c(=N)n(CC(=O)C(C)(C)C)c2ccccc21`, the EC50 (as a rule, the midpoint of the concentration-response curve) in test [1] is 5.31 µM (active).
Take `CCOc1ccc(NC(=O)CCC(=O)N/N=C/c2ccc([N+](=O)[O-])s2)cc1`: the IC50 in test [2] is 13.6 µM (active). Also, in [3], the AC50 (commonly the midpoint of the concentration-response curve, whichever way the signal moves) was 6.21 µM (active).
Consider `C(=N\Nc1nc2ccccc2[nH]1)/c1cccc2nccnc12`, for which the EC50 is > 350 µM (not active) in [4]; 9.69 µM (active) in [5]; > 350 µM (not active) in test [6]; 18.5 µM (active) in test [7]; 5.54 µM (active) in test [9]. Besides, in test [8], the AC50 is 105 µM (active).
Consider `Cc1ccc(C)c2nc(O)c(CN(CC3CCCO3)C(S)=NCc3ccco3)cc12` (stereo unspecified), for which the EC50 in test [1] is 2.11 µM (active).
Regarding `Cc1ccc(-c2c[n+](-c3ccc(SC(F)F)cc3)c3n2CCC3)cc1`, the AC50 in [3] was 1.64 µM (active); in test [10], 5.09 µM (active).
In the case of `CC(=O)OC1(c2ccccc2)CCN(C2CCCCC2)CC1C` (stereo unspecified), the EC50 in [1] was 1.06 µM (active).
On to `CCN1CCCC1CNC(=O)c1ccc2c(c1)NC(=O)/C(=C\c1ccc(C)cc1)S2` (stereo unspecified), for which the IC50 in test [11] is > 80 µM (inactive). In addition, in test [3], the AC50 was 18.9 µM (active). Also, the EC50 is 16 µM (active) in test [5], > 120 µM (not active) in [7] and > 120 µM (not active) in test [9].
Regarding `NC(=S)N/N=C/c1c(O)ccc2ccccc12`, the results for the concentration for a half-maximal effect (EC50) in test [5], in test [7] and in test [9] were 22.8 µM (active), 24.5 µM (active) and 11.6 µM (active), respectively. The IC50 in [12] and in test [13] was > 66 µM (inactive) throughout. In [10], the AC50 was 1.09 µM (active).
On to `CCn1c(N)c(C(=O)NC2CCCCC2)sc1=S`, for which the IC50 in [12] and in test [13] was > 66 µM (inactive) throughout.
As to `O=C(N/N=C/c1cc(Br)ccc1O)c1ccccc1Cl`, the half-maximal effective concentration (EC50) in [4] was > 350 µM (not active); in [16], > 38 µM (not active); in test [6], 103 µM (active); in [19] it was > 160 µM (inactive). The results for the CC50 in [14], in test [15] and in test [18] were 2.16 µM (active), 8.07 µM (active) and 6.98 µM (active), respectively. Besides, in test [17], the IC50 is 8.06 µM (active). For the same compound, the half-maximal activity concentration (AC50) in [8] is 18.9 µM (active).
As for `O=C(CN1CCN(Cc2ccccc2Cl)CC1)N=Nc1c(O)[nH]c2ccccc12`, in [1], the EC50 was 0.376 µM (active).
Take `Cc1ccc(C2CC2C(=O)NN=C(S)Nc2ccc(Cl)cc2)cc1` (stereo unspecified): the IC50 in test [12] and in test [13] was > 66 µM (inactive) throughout.
Regarding `O=C(CCS(=O)(=O)c1ccccc1)Nc1nccs1`, the AC50 in test [8] is 48.6 µM (active).
For the compound `O=C(/C=C/Nc1cccc(C(F)(F)F)c1)C(F)(F)F`, the AC50 in test [8] was > 350 µM (inactive).
Take `COc1ccccc1N1CCN(C(=O)CCC(=O)N2CCN(c3ccc(F)cc3)CC2)CC1`: the half-maximal activity concentration (AC50) in [8] is 186 µM (active).
